Like-named read-outs stand apart in the source and are kept apart here.
Experiments:
[1] = test system: G144; conditions: called 'known'; cell line not stated, used in G144 parental and resistant clone experiment; cited from earlier work
[2] = test system: G144; assay: MTT-based cytotoxicity assay, G144; format: cell-based, human; conditions: Homo sapiens, 72 h, G144, MTT
Description: (§1) A dose-response analysis of BMT9 (concentrations ranging from 4.5 µM-18 µM), BCNU (from 150 µM-500 µM) and TMZ (350 µM-700 µM) was performed in two conventional glioblastoma cell lines (T98G, U373) and the GNS cell line G144 by MTT-based cytotoxicity assays (Figure 5A-D). Cells were seeded on p96-well plates and treated with the different compounds for 72 h. Then, the MTT reagent (3-(4,5-Dimethyl-2-thiazolyl)-2,5-diphenyl-2H-tetrazolium bromide diluted in PBS to a concentration of 1mg/ml), was added to each well to a final concentration of 0.33mg/ml, and incubated for 3 h at 37°C. After that, the media was removed, and formazan crystals were solubilized with DMSO. Absorbance was measured at 560 nm using a "Synergy HT" plate reader (Biotek). In the graphs, the Y axis represents the percentage of cell viability relative to non-treated cells. The IC50, when reached are marked by a rectangle. DMSO treatment had no effect on cell viability.
Previous studies have reported that the molecular signature of the GNSC G144 cell line corresponds to a 'proneural' subtype of GB with NSC features (Pollard et al., 2009; Danovi et al., 2013). Thus, to test BMT9 specificity we compared cellular viability when treating CD133-positive cells (either GNSCs or normal human fetal neural stem cells-NSC) versus CD133-negative human embryonic fibroblast (HEFs) (Figure 8A). MTT-based cytotoxicity assay (Figure 7B-D) were performed as previously described.
While the first line therapy of gliomas has proven its effectiveness and improved clinical outcomes, acquired chemoresistance to alkylating agents has been identified as a major cause of treatment failure (Sarkaria et al., 2008). In a murine model of GB, long-term treatment with subtoxic TMZ doses enriched the side population of cancer stem cells, increasing the tumor aggressiveness (Bleau et al., 2009). Thus, we generated TMZ-resistant G144-clones that were selected upon treatment with TMZ either at 500 µM or 700 µM for several months (R500 and R700, respectively). The obtained clones maintained CD133 stem marker expression (Figure 9A). We then analyzed BMT9 dose-dependent effect on cell viability, by MTT assay, comparing the resistant clones to parental cells.

[3] = test system: U373; assay: MTT-based cytotoxicity assay, U373; format: cell-based; conditions: Homo sapiens, U373 MG, 72 h
Description: as §1

[4] = test system: T98G; assay: MTT-based cytotoxicity assay, T98G; format: cell-based; conditions: Homo sapiens, 72 h
Description: as §1

[5] = test system: GNSCs; assay: MTT assay of BMT9 analogues against GNSCs; format: cell-based; conditions: 48 and 72 h
Description: as §1
The cytotoxicity of two BMT9 analogues synthetized by Instituto Biomar S.A. was evaluated by MTT assays.

[6] = test system: P1-TP73 promoter; assay: P1-p73-Fluc-DsRed reporter validation in HCT116 p53-/- cells; format: cell-based, human; conditions: HCT116 p53-/- cells transfected with P1-p73-FlucDsRed vector, cultured with Doxo, 24 and 48 hours
Excerpt: A bimodal reporter vector, named P1-p73-Fluc-DsRed2, was engineered based on the previously published lentiviral system LV-CMV-Fluc-dsRed2 (Shah et al., 2008). […] Using this backbone, the CMV promoter was swapped for a 930 bp fragment of the human P1-TP73 promoter contained in the P1-p73-Luc-pGL3-Basic vector (-859 to +71 of TP73 gene) (Seelan et al., 2002) (Figure 1A'). To validate the generated system, we used the HCT116 p53-/- cells in which endogenous TAp73 expression can be induced by the genotoxic drug doxorubicin (Doxo), at RNA and protein levels (Figure 1B and Vossio et al., 2002, respectively). Next, we tested whether the engineered reporter vector could monitor these changes in endogenous TAp73 RNA levels. For this purpose, HCT116 p53-/- cells were either non-transfected (NT) or transfected with P1-p73-FlucDsRed vector and cultured with Doxo (black square fill pattern bar) or without treatment (grey bar) for the indicated time points (Figure 1C), at which the fluorescence levels (DsRed, Y axis) were measured by fluorimetry.
As depicted in Figure 1C, we detected an increase in endogenous P1-promoter activity after 24 and 48 hours of culture […].

O=NN(CCCl)C(=O)NCCCl [BCNU, carmustine, reference compound]
IC50 [1]: 500 µM
IC50 [2]: 250 µM
IC50 [3]: 250 µM
IC50 [4]: 500 µM

C=C1C2CCC(C)(C3COc4c(C=O)c5c(c(OC)c4C3O)C(=O)OC5O)C1CCC2(C)C (stereo not shown) [BMT9.2]
IC50 [5]: ≤ 4.5 µM

C=C1C2CCC(C)(C3COc4c(C=O)c5c(c(OC)c4C3O)C(=O)OC5OC(C)=O)C1CCC2(C)C (stereo not shown) [BMT9.5]
IC50 [5]: ≤ 4.5 µM

COc1cccc2c1C(=O)c1c(O)c3c(c(O)c1C2=O)C[C@@](O)(C(=O)CO)C[C@@H]3O[C@H]1C[C@H](N)[C@H](O)[C@H](C)O1 [Doxo, doxorubicin]
reporter activity (DsRed fluorescence) [6]: increase in reporter activity that was sustained after 48 hours

From patent EP4349409A1, “COMPOUNDS FOR THE MANAGEMENT OF CELL STEMNESS AND INVASION IN CANCER AND RELATED DISEASES” (Instituto Biomar S.A., priority 2022, dated 2024)
